From US11400107B2, “Cancer treatments” (NuCana plc, priority 2016, dated 2022)
“Also recorded” adds a separate entry of the source.

Test system: advance progressive cancers refractory to, or relapsed on, all conventional therapies
Assay: ProGem1 dose escalation clinical study of NUC-1031
Format: in vivo, human
Design: CA125 level: unit not given here
Text: The following data were generated in clinical studies of NUC-1031 in human patients with advance progressive cancers that are refractory to, or have relapsed on, all conventional therapies that have been used to date. The results clearly illustrate the ability of NUC-1031 to successfully treat refractory cancers.
Although the primary objectives of the dose escalation part of the study were to determine the Recommended Phase II Dose (RP2D) and safety profile, secondary objectives included determining the PK profile, however effective treatment of patients with a range of refractory cancers has also been observed as part of this study.
A total of 68 patients have been entered into this dose escalation study, of which 49 were evaluable for clinical response in that they have received at least 2 Cycles of NUC-1031 and were therefore eligible for a RECIST 1.1 assessment.
NUC-1031 was administered as a 5 to 30 minute intravenous slow bolus injection. • Schedule A: NUC-1031 was administered on days 1, 8, 15 of a 4 weekly Cycle. • Schedule B: NUC-1031 was administered on days 1, 5, 8, 12, 15, 19, of a 4 weekly Cycle. Evaluable Patients [n=49]
Evaluable patients were patients that received ≥2 Cycles of NUC-1031 and were therefore eligible for a RECIST 1.1 assessment at the end of Cycle 2. Where the disease response duration, measured in months, is followed by a “+” this indicates ongoing disease control as of the latest cut-off date.

[1] = Patient 040, cholangiocarcinoma, 1,000 then 900 mg/m^2 weekly
[2] = Patient 041, breast cancer, 900 then 825 mg/m^2 weekly
[3] = Patient 043, ovarian cancer, 900 then 750 mg/m^2 weekly
[4] = Patient 044, lung cancer, 900 then 825 mg/m^2 weekly
[5] = Patient 046, adrenal carcinoma, 1,000, 900, 750, then 625 mg/m^2 weekly
[6] = Patient 048, ovarian cancer (granulosa cell tumour), 1,000 reduced stepwise to 625 mg/m^2 weekly
[7] = Patient 052 (204), oesophageal cancer, 900 then 825 mg/m^2 weekly
[8] = Patient 057 (209), ovarian cancer, 900, 825, then 750 mg/m^2 weekly
[9] = Patient 058 (210), lung cancer, 825 then 750 mg/m^2 weekly
[10] = Patient 059 (211), cervical cancer, 825, 750, then 625 mg/m^2 weekly
[11] = Patient 061 (213), colorectal cancer, 825 mg/m^2 weekly
[12] = Patient 063 (215), ovarian cancer, 825, 750, then 625 mg/m^2 weekly
[13] = evaluable patients n = 49, RECIST 1.1

SMILES: C[C@H](NP(=O)(OC[C@H]1O[C@@H](n2ccc(N)nc2=O)C(F)(F)[C@@H]1O)Oc1ccccc1)C(=O)OCc1ccccc1 (stereo partly drawn) [NUC-1031, 2′-deoxy-2′,2′-difluoro-D-cytidine-5′-O-[phenyl (benzoxy-L-alaninyl)] phosphate]
- Best response to RECIST [1]: Stable Disease
- Duration of response to RECIST [1]: 4 months
- Tumour volume (Patient 040, cholangiocarcinoma, end of Cycle 2 CT scan (85 at base)): 82.1
- CA19.9 level (Patient 040, cholangiocarcinoma, on 4th June (664 at baseline)): 155
- Adverse events (grade) (Patient 041, breast cancer, 900 mg/m^2 weekly, Cycle 3): fatigue (G3)
- Best response to RECIST [2]: Stable Disease
- Duration of response to RECIST [2]: 4 months
- CA 15.3 tumour marker (Patient 041, breast cancer, at C2 (726 at base)): 845
- CA 15.3 tumour marker (Patient 041, breast cancer, on 19 May 2014 (726 at base)): 824
- Best response to RECIST (Patient 042, cholangiocarcinoma, 900 mg/m^2 weekly): Progressive Disease
- Adverse events (grade) (Patient 042, cholangiocarcinoma, 900 mg/m^2 weekly, days 3-5 following study drug): delayed onset fatigue (G2)
- Reduction in tumour volume of primary target lesion (Patient 042, cholangiocarcinoma, end of Cycle 2 CT scan): 9%
- Adverse events (grade) [3]: delayed onset fatigue (G2); also recorded: Leg oedema developed to G3
- Best response to RECIST [3]: Stable Disease
- Duration of response to RECIST [3]: 13 months
- CA125 level (Patient 043, ovarian cancer, beginning of Cycle 2 (1.099 at baseline as printed)): 783
- Reduction in tumour volume from baseline (Patient 043, ovarian cancer, end of Cycle 6 CT scan): 10%
- CA125 level (Patient 043, ovarian cancer, on 15th July (1,099 at baseline)): 910
- Volume of fluid drained from the pleural effusion (Patient 043, ovarian cancer, on treatment (was 300 ml per week)): 150 ml per week
- Adverse events (grade) (Patient 044, lung cancer, 900 mg/m^2 weekly): G3 lung infection
- Best response to RECIST [4]: Stable Disease
- Duration of response to RECIST [4]: 5 months
- Reduction in tumour volume (Patient 044, lung cancer, end of Cycle 2 CT scan): 10%
- Best response to RECIST [5]: Stable Disease
- Duration of response to RECIST [5]: 11 months
- Adverse events (grade) (Patient 046, adrenal carcinoma, Cycle 1 at 1,000 mg/m^2, following Cycle 8 D1 at 900 mg/m^2): delayed onset fatigue, nausea and vomiting (all G3); also recorded: neutropenia (G2)
- Reduction in tumour volume from baseline (Patient 046, adrenal carcinoma, end of Cycle 6 CT scan): 12.6%
- Best response to RECIST [6]: Stable Disease
- Duration of response to RECIST [6]: 8 months
- inhibin B (Patient 048, ovarian cancer, August (1,038 prior to study entry)): 1148
- inhibin B (Patient 048, ovarian cancer, July 2014 (1,038 prior to study entry)): 1,106
- inhibin B (Patient 048, ovarian cancer, September (1,038 prior to study entry)): 1053
- Adverse events (grade) (Patient 048, ovarian cancer, following Cycle 1 Day 1 at 1,000 mg/m^2, neutropenia (G3) at Cycle 4): ALT, (G3, a DLT); also recorded: AST and neutropaenia (G2); also recorded: ALP (G1); also recorded: neutropenia (G3)
- Adverse events (grade) (Patient 050 (202), oesophageal cancer, 900 mg/m^2, following Cycle 1 Day 1): ALT and fatigue, both G3
- Best response to RECIST (Patient 050 (202), oesophageal cancer, 900 mg/m^2 weekly): Progressive Disease
- Best response to RECIST (Patient 051 (203), anal cancer, 900 mg/m^2 weekly): Progressive Disease
- Best response to RECIST [7]: Stable Disease
- Duration of response to RECIST [7]: 5 months
- Best response to RECIST (Patient 053 (205), colon cancer, 900 mg/m^2 weekly): Progressive Disease
- Best response to RECIST (Patient 055 (207), ovarian cancer, 900, 825, then 625 mg/m^2 weekly): Stable Disease
- CA125 level (Patient 055 (207), ovarian cancer, January 2015 (36 at baseline)): 24
- Reduction in tumour volume from baseline (Patient 055 (207), ovarian cancer, end of Cycle 6 CT scan): 18%
- Duration of response to RECIST (Patient 055 (207), ovarian cancer, ongoing, 900, 825, then 625 mg/m^2 weekly): ≥ 10 months
- Adverse events (grade) (Patient 057 (209), ovarian cancer, 900 mg/m^2, Cycle 1 Day 15): anaemia and ascites both G3
- Best response to RECIST [8]: Stable Disease
- Duration of response to RECIST [8]: 5 months
- Reduction in tumour volume from baseline (Patient 057 (209), ovarian cancer, end of Cycle 4 CT scan): 10%
- Adverse events (grade) (Patient 058 (210), lung cancer, 825 mg/m^2, Cycle 1): G3 transaminitis (ALT), a DLT
- Best response to RECIST [9]: Stable Disease
- Duration of response to RECIST [9]: 4 months
- Best response to RECIST [10]: Stable Disease
- Duration of response to RECIST [10]: 7 months
- Adverse events (grade) (Patient 059 (211), cervical cancer, thrombocytopenia in Cycle 1 at 825 mg/m^2, fatigue in Cycle 3 at 750 mg/m^2): thrombocytopenia (G3); also recorded: fatigue (G3)
- Best response to RECIST (Patient 060 (212), pancreatic cancer, 825 mg/m^2 weekly): Progressive Disease
- Adverse events (grade) (Patient 060 (212), pancreatic cancer, 825 mg/m^2 weekly, after Cycle 1): ALP, AST, ALT, all G3
- Best response to RECIST [11]: Stable Disease
- Duration of response to RECIST [11]: 3 months
- Reduction in tumour volume (Patient 061 (213), colorectal cancer, end of Cycle 2 CT scan): 2%
- Best response to RECIST [12]: Stable Disease
- Duration of response to RECIST [12]: 3 months
- Adverse events (grade) (Patient 063 (215), ovarian cancer, Cycle 3 at 750 mg/m^2): fatigue (G3)
- Best response to RECIST (Patient 064 (216), trophoblastic cancer, 825 mg/m^2 weekly): Progressive Disease
- Best response to RECIST (Patient 066 (218), colorectal cancer, 825, 750, then 625 mg/m^2 weekly): Stable Disease
- Duration of response to RECIST (Patient 066 (218), colorectal cancer, ongoing, 825, 750, then 625 mg/m^2 weekly): ≥ 8 months
- Reduction in tumour volume from baseline (Patient 066 (218), colorectal cancer, unscheduled CT scan on 30th December): 16%
- Adverse events (grade) (Patient 067 (219), osteosarcoma, 825 mg/m^2 weekly, towards the end of each Cycle): neutropenia G2
- Best response to RECIST (Patient 067 (219), osteosarcoma, 825 then 750 mg/m^2 weekly): Stable Disease
- Increase (tumour) from baseline (Patient 067 (219), osteosarcoma, EOS CT scan): 1%
- Duration of response to RECIST (Patient 067 (219), osteosarcoma, ongoing, 825 then 750 mg/m^2 weekly): ≥ 7 months
- Best response to RECIST (Patient 068 (220), lung cancer, 825 mg/m^2 weekly): Progressive Disease
- Best response to RECIST (Patient 069 (221), colorectal cancer, 825 reduced stepwise to 500 mg/m^2 weekly): Stable Disease
- Adverse events (grade) (Patient 069 (221), colorectal cancer, Cycle 3 at 825 mg/m^2, after Cycle 4 D1 at 750 mg/m^2, Cycle 5 at 675 mg/m^2): neutropenia (G4); also recorded: neutropenia and leukopenia, G3; also recorded: neutropenia and leukopenia, G2
- Response on PET scan (Patient 069 (221), colorectal cancer, PET scan on 30/10, 825 mg/m^2 weekly): Partial Response
- Reduction in tumour volume from baseline (Patient 069 (221), colorectal cancer, end of C2 CT scan): 11%
- Reduction in tumour volume from baseline (Patient 069 (221), colorectal cancer, end of C4 CT scan): 26%
- Duration of response to RECIST (Patient 069 (221), colorectal cancer, ongoing, 825 reduced stepwise to 500 mg/m^2 weekly): ≥ 7 months
- Best Overall Response: Partial Responses [13]: 5 (10%) patients (%)
- Best Overall Response: Progressive Disease [13]: 11 (22%) patients (%)
- Best Overall Response: Stable Disease [13]: 33 (67%) patients (%)
